Reference: patent publication US9624170B2, “4-(piperrazin-1-yl)-pyrrolidin-2-one compounds as monoacylglycerol lipase (MAGL) inhibitors” (TAKEDA PHARMACEUTICAL COMPANY LIMITED, priority 2013, dated 2017)
Values belong to the compound of their own block, whether it stands above or below them.

Biological target: T1, human MAGL (His-hMAGL) (Homo sapiens, UniProt Q99685)
T1 construct: made in house; host or cells: Escherichia coli BL21(DE3)
T1 sequence (Q99685 1-303): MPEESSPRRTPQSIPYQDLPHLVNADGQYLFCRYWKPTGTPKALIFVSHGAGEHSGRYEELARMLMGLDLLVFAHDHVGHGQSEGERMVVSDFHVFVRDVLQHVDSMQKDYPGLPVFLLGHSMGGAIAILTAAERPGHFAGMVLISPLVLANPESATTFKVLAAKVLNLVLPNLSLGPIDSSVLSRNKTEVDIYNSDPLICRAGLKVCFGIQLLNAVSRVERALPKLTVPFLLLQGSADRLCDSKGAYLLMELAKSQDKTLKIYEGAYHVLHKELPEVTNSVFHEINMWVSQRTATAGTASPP
Experiment: Measurement of MAGL inhibitory activity by mass spectrometry
Assay type: biochemical
Conditions: MAGL inhibitory rate, test compound 10 μM, His-hMAGL, substrate 2-arachidonylglycerol, RapidFire-mass spectrometry
Outline: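 His-tagged human MAGL was reacted with 150 μM 2-arachidonylglycerol substrate (stock, added by 5 μL) for 10 min at room temperature, then stopped with formic acid. Arachidonic acid product was quantified by RapidFire–triple-quadrupole MS in negative SRM mode, corrected by arachidonic acid-d8, and converted to percent inhibition.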

SMILES: COc1ccccc1-c1cc(N2CC(N3CCN(C(=O)c4nccs4)CC3)CC2=O)cc2cn[nH]c12 (stereo not shown) [Example 355, 1-(7-(2-methoxyphenyl)-1H-indazol-5-yl)-4-(4-(1,3-thiazol-2-ylcarbonyl)piperazin-1-yl)pyrrolidin-2-one]
inhibition at 10 µM: 98%

SMILES: Cc1cc(Cl)ccc1-c1cccc(N2CC(N3CCN(C(=O)c4nccs4)CC3)CC2=O)c1 (stereo not shown) [Example 356, 1-(4′-chloro-2′-methylbiphenyl-3-yl)-4-(4-(1,3-thiazol-2-ylcarbonyl)piperazin-1-yl)pyrrolidin-2-one]
inhibition at 10 µM: 98%

SMILES: Cc1cc(Cl)ccc1-c1cc(F)cc(N2CC(N3CCN(C(=O)c4nccs4)CC3)CC2=O)c1 (stereo not shown) [Example 357, 1-(4′-chloro-5-fluoro-2′-methylbiphenyl-3-yl)-4-(4-(1,3-thiazol-2-ylcarbonyl)piperazin-1-yl)pyrrolidin-2-one]
inhibition at 10 µM: 101%

SMILES: Cc1cnc(-n2ccc3cc(N4CC(N5CCN(C(=O)c6nccs6)CC5)CC4=O)ccc32)nc1 (stereo not shown) [Example 358, 1-(1-(5-methylpyrimidin-2-yl)-1H-indol-5-yl)-4-(4-(1,3-thiazol-2-ylcarbonyl)piperazin-1-yl)pyrrolidin-2-one]
inhibition at 10 µM: 102%

SMILES: C[C@@H]1CN(C(=O)c2nccs2)CCN1C1CC(=O)N(c2ccc3c(ccn3-c3ccc(F)cc3)c2)C1 (stereo partly drawn) [Example 359, 1-(1-(4-fluorophenyl)-1H-indol-5-yl)-4-((2R)-2-methyl-4-(1,3-thiazol-2-ylcarbonyl)piperazin-1-yl)pyrrolidin-2-one]
inhibition at 10 µM: 96%

SMILES: O=C1CC(N2CCN(c3ncccn3)CC2)CN1c1ccc2c(ccn2-c2ccnc(C(F)(F)F)c2)c1 (stereo not shown) [Example 361, 4-(4-(pyrimidin-2-yl)piperazin-1-yl)-1-(1-(2-(trifluoromethyl)pyridin-4-yl)-1H-indol-5-yl)pyrrolidin-2-one]
inhibition at 10 µM: 92%

SMILES: C[C@H]1CN(C2CC(=O)N(c3ccc4c(ccn4-c4ccc(F)cc4)c3)C2)CCN1C(=O)c1nccs1 (stereo partly drawn) [Example 363, 1-(1-(4-fluorophenyl)-1H-indol-5-yl)-4-((3S)-3-methyl-4-(1,3-thiazol-2-ylcarbonyl)piperazin-1-yl)pyrrolidin-2-one]
inhibition at 10 µM: 96%

SMILES: O=C(c1nccs1)N1CCN(C2CC(=O)N(c3sc4cc(F)ccc4c3Cl)C2)CC1 (stereo not shown) [Example 366, 1-(3-Chloro-6-fluoro-1-benzothiophen-2-yl)-4-(4-(1,3-thiazol-2-ylcarbonyl)piperazin-1-yl)pyrrolidin-2-one]
inhibition at 10 µM: 100%

SMILES: Cc1ccc(-c2cccc(N3CC(N4CCN(C(=O)c5nccs5)CC4)CC3=O)c2)c(C)n1 (stereo not shown) [Example 368, 1-(3-(2,6-dimethylpyridin-3-yl)phenyl)-4-(4-(1,3-thiazol-2-ylcarbonyl)piperazin-1-yl)pyrrolidin-2-one]
inhibition at 10 µM: 97%

Continued, values first:

inhibition at 10 µM: 92%
SMILES: Cc1nccnc1-c1cccc(N2CC(N3CCN(C(=O)c4nccs4)CC3)CC2=O)c1 (stereo not shown) [Example 362, 1-(3-(3-methylpyrazin-2-yl)phenyl)-4-(4-(1,3-thiazol-2-ylcarbonyl)piperazin-1-yl)pyrrolidin-2-one]

inhibition at 10 µM: 98%
SMILES: O=C(c1nccs1)N1CCN(C2CC(=O)N(c3ccc4c(c3)CCN4c3ccnc(C(F)(F)F)c3)C2)CC1 (stereo not shown) [Example 365, 4-(4-(1,3-thiazol-2-ylcarbonyl)piperazin-1-yl)-1-(1-(2-(trifluoromethyl)pyridin-4-yl)-2,3-dihydro-1H-indol-5-yl)pyrrolidin-2-one]

inhibition at 10 µM: 101%
SMILES: O=C(c1nccs1)N1CCN(C2CC(=O)N(c3cccc(-c4cnccc4Cl)c3)C2)CC1 (stereo not shown) [Example 370, 1-(3-(4-chloropyridin-3-yl)phenyl)-4-(4-(1,3-thiazol-2-ylcarbonyl)piperazin-1-yl)pyrrolidin-2-one]

inhibition at 10 µM: 104%
SMILES: O=C(c1nccs1)N1CCN(C2CC(=O)N(c3cccc(-c4cnccc4C(F)(F)F)c3)C2)CC1 (stereo not shown) [Example 371, 4-(4-(1,3-thiazol-2-ylcarbonyl)piperazin-1-yl)-1-(3-(4-(trifluoromethyl)pyridin-3-yl)phenyl)pyrrolidin-2-one]
